{
  "source": "paper PMC9413440",
  "about": "“An Iterative Approach Guides Discovery of the FabI Inhibitor Fabimycin, a Late-Stage Antibiotic Candidate with In Vivo Efficacy against Drug-Resistant Gram-Negative Infections” (ACS Central Science, 2022)",
  "key": {"[1]": {"biological_target": "hERG ion channel (Homo sapiens, UniProt Q12809)", "sequence (Q12809 whole entry)": "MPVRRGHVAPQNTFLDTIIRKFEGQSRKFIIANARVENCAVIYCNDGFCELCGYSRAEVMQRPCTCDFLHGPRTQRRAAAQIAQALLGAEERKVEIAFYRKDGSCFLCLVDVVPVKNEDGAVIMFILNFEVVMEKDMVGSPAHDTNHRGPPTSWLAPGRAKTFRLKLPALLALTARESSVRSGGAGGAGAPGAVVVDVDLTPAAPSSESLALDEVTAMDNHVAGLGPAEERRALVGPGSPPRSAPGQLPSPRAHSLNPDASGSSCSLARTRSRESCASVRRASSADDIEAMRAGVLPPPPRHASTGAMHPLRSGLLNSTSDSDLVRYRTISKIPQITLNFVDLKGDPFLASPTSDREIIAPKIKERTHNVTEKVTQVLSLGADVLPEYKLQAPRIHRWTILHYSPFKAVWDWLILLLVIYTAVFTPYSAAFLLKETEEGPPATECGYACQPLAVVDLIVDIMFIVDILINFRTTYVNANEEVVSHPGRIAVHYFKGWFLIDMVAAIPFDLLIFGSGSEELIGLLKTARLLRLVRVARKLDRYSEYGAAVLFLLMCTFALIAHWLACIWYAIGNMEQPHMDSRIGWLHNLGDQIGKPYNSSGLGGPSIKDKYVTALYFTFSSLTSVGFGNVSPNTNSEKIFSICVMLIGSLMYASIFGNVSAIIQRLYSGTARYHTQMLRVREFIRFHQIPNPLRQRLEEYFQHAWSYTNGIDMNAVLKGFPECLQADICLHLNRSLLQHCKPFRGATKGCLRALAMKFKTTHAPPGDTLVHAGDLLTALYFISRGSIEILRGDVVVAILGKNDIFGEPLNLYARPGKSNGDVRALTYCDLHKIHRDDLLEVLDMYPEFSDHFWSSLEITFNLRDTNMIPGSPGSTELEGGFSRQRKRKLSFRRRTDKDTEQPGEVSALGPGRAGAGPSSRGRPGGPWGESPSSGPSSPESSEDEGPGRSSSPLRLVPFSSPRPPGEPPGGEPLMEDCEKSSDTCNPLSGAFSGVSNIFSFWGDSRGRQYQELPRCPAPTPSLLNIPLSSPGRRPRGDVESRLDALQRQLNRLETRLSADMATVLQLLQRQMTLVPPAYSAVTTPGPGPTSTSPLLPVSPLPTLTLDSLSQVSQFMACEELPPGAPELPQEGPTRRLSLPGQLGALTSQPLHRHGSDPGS", "experiment": "hERG activity"}, "[2]": {"tested_on": "E. coli MG1655", "experiment": "Time-kill kinetics", "assay_type": "cell-based, Escherichia coli", "conditions": "E. coli MG1655, over 8 h", "procedure": "An overnight culture of E. coli MG1655 was diluted in 5 mL of MH broth to ~5.0 * 10^5 CFU/mL and incubated at 37 °C […]\nwhile shaking for 1 hour. […]\nthe course of 8 hours. At each time point 100 µL of culture was collected and serially diluted in sterile PBS before plating on drug-free agar plates. Colonies were counted after incubation at 37 °C overnight and CFU/mL calculated. […]\nAll cells were cultured […]\nat 37 °C under a 5% CO2 environment. Cell lines were authenticated by a commercial vendor and inspected visually in house. Cell lines were not tested for Mycoplasma contamination. The media was prepared by the University of Illinois School of Chemical Sciences Cell Media Facility.\nH. sapiens HFF-1, A549, and HepG2 cells were seeded (3,000-6,000 cells/well) in a 96-well plate (Greiner Bio-One;"}},
  "data": [
    {"smiles": "Cc1c(CN(C)C(=O)/C=C/c2cnc3c(c2)CC[C@H](N)C(=O)N3)oc2ccccc12", "note": "[fabimycin]", "values": [
      {"measurement": "activity against the hERG ion channel", "setting": "[1]", "value": "lower activity against the hERG ion channel relative to both Debio-1452 and Debio-1452-NH3"},
      {"measurement": "rate of killing, time-kill growth curve", "setting": "[2]", "value": "not profoundly bactericidal"}
    ]}
  ]
}
